In test [1] the target is T1, Serine/threonine-protein kinase Chk1 (Homo sapiens) (UniProt O14757).
T1 sequence (whole entry): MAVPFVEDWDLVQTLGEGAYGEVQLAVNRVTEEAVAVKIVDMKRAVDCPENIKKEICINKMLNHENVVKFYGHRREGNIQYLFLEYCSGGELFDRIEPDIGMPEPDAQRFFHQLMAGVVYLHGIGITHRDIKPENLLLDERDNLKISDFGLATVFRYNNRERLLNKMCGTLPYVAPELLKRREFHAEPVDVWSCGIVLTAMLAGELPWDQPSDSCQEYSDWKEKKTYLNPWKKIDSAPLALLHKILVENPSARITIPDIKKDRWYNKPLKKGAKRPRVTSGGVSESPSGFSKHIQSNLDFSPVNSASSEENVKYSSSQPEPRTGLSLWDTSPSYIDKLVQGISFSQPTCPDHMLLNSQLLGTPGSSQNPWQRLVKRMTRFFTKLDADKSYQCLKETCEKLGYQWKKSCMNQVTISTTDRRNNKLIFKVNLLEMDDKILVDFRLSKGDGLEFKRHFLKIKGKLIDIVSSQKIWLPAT
Nature of the test: Inhibition of recombinant human full-length His-tagged CHEK1 expressed in baculovirus expression system at 500 nM using Ser/Thr 19 peptide as substrate incubated for 1 hr in presence of ATP at its Km concentration by Z'-LYTE assay relative to control.

For test [2], the target named is Mast/stem cell growth factor receptor Kit (Homo sapiens) (UniProt P10721). Nature of the test: Inhibition of human recombinant His-tagged c-Kit cytoplasmic domain (544 to 976 residues) expressed in baculovirus expression system at 500 nM using Tyr 06 as substrate incubated for 1 hr in presence of ATP at its Km concentration by Z'-LYTE assay relative to control.
Chain of Mast/stem cell growth factor receptor Kit (Homo sapiens) (P10721 whole entry, the tested form may be a part): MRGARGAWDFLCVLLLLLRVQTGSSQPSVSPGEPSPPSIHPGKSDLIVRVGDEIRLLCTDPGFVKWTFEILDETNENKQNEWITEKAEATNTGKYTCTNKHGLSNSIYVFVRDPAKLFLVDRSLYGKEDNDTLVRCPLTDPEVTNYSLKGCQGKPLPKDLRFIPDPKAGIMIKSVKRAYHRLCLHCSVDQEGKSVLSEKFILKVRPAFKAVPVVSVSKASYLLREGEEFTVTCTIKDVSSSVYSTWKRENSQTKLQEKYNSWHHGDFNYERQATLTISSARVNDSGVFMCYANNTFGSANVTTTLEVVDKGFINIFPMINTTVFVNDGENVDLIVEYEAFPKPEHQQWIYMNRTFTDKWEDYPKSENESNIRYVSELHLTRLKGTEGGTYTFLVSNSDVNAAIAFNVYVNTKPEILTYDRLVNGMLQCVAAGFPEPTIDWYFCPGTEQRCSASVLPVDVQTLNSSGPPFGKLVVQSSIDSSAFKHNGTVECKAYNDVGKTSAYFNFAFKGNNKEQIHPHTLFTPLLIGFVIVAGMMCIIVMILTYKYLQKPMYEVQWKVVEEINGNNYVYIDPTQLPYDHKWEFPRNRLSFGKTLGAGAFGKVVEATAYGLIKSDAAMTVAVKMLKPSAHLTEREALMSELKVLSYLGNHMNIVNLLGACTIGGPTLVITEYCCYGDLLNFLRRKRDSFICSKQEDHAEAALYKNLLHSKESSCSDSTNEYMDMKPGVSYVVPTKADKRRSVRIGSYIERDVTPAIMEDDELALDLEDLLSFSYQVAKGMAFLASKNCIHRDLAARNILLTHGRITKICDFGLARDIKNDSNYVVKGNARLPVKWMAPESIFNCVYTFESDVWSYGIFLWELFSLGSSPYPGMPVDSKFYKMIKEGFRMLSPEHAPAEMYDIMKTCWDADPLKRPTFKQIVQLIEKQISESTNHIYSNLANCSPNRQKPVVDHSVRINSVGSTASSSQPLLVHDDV
In test [3] the target is Focal adhesion kinase 1 (Homo sapiens) (UniProt Q05397). Nature of the test: Inhibition of recombinant full length human GST-tagged PTK2 expressed in baculovirus expression system at 500 nM using Tyr 07 as substrate incubated for 1 hr in presence of ATP at its Km concentration by Z'-LYTE assay relative to control.
Chain of Focal adhesion kinase 1 (Homo sapiens) (Q05397 2-1052 limits assumed): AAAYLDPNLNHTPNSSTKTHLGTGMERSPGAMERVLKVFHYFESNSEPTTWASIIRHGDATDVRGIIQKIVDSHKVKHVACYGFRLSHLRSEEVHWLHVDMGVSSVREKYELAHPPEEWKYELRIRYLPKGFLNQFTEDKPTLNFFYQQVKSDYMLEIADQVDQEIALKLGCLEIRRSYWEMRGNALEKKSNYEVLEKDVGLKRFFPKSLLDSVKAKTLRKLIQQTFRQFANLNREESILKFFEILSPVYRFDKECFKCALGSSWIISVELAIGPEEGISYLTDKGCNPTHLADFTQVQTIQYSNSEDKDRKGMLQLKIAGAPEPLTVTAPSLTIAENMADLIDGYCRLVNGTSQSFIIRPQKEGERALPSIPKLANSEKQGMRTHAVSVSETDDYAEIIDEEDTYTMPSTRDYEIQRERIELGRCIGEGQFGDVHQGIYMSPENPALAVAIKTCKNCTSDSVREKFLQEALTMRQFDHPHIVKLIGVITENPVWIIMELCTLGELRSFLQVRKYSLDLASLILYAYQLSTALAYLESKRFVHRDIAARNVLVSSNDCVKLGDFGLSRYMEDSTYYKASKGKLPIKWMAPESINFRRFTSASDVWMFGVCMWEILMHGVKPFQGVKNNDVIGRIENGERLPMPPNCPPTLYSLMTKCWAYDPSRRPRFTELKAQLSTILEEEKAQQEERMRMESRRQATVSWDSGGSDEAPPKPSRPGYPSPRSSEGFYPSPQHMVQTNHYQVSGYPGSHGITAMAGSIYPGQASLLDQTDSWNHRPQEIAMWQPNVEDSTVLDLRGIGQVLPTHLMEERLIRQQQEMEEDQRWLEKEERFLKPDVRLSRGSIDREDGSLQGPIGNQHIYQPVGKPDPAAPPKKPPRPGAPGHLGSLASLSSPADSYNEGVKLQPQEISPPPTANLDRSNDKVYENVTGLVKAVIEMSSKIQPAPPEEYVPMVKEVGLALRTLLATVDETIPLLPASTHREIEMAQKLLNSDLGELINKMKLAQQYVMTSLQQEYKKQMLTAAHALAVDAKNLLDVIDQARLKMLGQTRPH
Test [4] addresses Mitogen-activated protein kinase 14 (Homo sapiens) (UniProt Q16539). Briefly: Inhibition of recombinant human GST-tagged full length MAPK14 expressed in Escherichia coli expression system at 500 nM using Ser/Thr 04 as substrate incubated for 1 hr in presence of ATP at its Km concentration by Z'-LYTE assay relative to control.
Test [5] concerns the target T2, Epidermal growth factor receptor (Homo sapiens, UniProt P00533). Nature of the test: Inhibition of human EGFR using poly[Glu:Tyr] (4:1) as substrate in presence of [gamma33P]ATP by radiometric HotSpot assay.
The target of test [6] is Macrophage colony-stimulating factor 1 receptor (Homo sapiens) (UniProt P07333). Nature of the test: Inhibition of recombinant human His-tagged CSF1R (538 to 910 residues) expressed in baculovirus expression system at 500 nM using Tyr 01 peptide as substrate incubated for 1 hr in presence of ATP at its Km concentration by Z'-LYTE assay relative to control.
In test [7] the target is T2, Epidermal growth factor receptor. The following applies: dose 500.0 nM, time 1.0 hrs.
For test [8], the target named is T3, Testis-specific serine/threonine-protein kinase 2 (Homo sapiens) (UniProt Q96PF2).
T3 sequence (whole entry): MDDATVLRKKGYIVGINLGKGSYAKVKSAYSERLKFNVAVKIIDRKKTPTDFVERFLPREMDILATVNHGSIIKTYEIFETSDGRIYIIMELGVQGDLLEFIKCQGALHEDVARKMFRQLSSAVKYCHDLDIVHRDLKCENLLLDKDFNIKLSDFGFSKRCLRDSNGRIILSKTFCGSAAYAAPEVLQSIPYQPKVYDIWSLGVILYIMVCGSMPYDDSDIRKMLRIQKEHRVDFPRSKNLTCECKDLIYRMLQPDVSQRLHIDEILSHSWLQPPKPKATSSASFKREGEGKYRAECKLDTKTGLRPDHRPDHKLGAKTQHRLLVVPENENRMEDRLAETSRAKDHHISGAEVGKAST
Briefly: Inhibition of recombinant full length human His-tagged STK22B expressed in baculovirus expression system at 500 nM using Ser/Thr 04 as substrate incubated for 1 hr in presence of ATP at its Km concentration by Z'-LYTE assay relative to control.

In test [9] the target is Protein kinase C alpha type (Homo sapiens) (UniProt P17252). Nature of the test: Inhibition of human full length GST-tagged PRKCA expressed in insect cells at 500 nM using Ser/Thr 07 as substrate incubated for 1 hr in presence of ATP at its Km concentration by Z'-LYTE assay relative to control.
Test [10] addresses Tyrosine-protein kinase SYK (Homo sapiens) (UniProt P43405). Briefly: Inhibition of recombinant human N-terminal GST-tagged full length SYK expressed in baculovirus expression system at 500 nM using Tyr 02 as substrate incubated for 1 hr in presence of ATP at its Km concentration by Z'-LYTE assay relative to control.
Test [11] addresses Tyrosine-protein kinase JAK2 (Homo sapiens) (UniProt O60674). Nature of the test: Inhibition of human recombinant GST tagged JAK2 catalytic domain expressed in baculovirus expression system at 500 nM using Tyr 06 as substrate incubated for 1 hr in presence of ATP at its Km concentration by Z'-LYTE assay relative to control.
For test [12], the target named is Tyrosine-protein kinase CSK (Homo sapiens) (UniProt P41240). Briefly: Inhibition of recombinant full length human His-tagged CSK expressed in Escherichia coli expression system at 500 nM using Tyr 02 peptide as substrate incubated for 1 hr in presence of ATP at its Km concentration by Z'-LYTE assay relative to control.
Chain of Tyrosine-protein kinase CSK (Homo sapiens) (P41240 2-450 limits assumed): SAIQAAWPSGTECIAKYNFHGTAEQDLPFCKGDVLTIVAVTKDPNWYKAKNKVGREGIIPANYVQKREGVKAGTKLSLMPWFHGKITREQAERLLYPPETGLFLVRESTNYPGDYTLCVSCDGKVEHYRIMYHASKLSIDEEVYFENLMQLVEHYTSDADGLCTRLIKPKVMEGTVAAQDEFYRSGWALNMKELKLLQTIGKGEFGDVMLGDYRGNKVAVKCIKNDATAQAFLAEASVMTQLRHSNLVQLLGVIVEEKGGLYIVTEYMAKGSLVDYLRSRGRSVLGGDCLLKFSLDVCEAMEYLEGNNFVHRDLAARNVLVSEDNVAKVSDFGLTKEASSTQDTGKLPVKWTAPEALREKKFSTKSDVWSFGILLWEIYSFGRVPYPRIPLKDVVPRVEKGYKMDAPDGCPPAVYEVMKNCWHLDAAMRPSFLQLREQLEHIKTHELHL
Test [13] deals with Tyrosine-protein kinase Fyn (Homo sapiens) (UniProt P06241). Briefly: Inhibition of recombinant human C-terminal His-tagged full length FYN expressed in baculovirus expression system at 500 nM using Tyr 02 peptide as substrate incubated for 1 hr in presence of ATP at its Km concentration by Z'-LYTE assay relative to control.
For test [14], the target named is Serine/threonine-protein kinase pim-2 (Homo sapiens) (UniProt Q9P1W9). Nature of the test: Inhibition of recombinant full length GST-tagged human PIM2 expressed in baculovirus expression system at 500 nM using Ser/Thr 07 as substrate incubated for 1 hr in presence of ATP at its Km concentration by Z'-LYTE assay relative to control.
Chain of Serine/threonine-protein kinase pim-2 (Homo sapiens) (Q9P1W9 whole entry, looked up): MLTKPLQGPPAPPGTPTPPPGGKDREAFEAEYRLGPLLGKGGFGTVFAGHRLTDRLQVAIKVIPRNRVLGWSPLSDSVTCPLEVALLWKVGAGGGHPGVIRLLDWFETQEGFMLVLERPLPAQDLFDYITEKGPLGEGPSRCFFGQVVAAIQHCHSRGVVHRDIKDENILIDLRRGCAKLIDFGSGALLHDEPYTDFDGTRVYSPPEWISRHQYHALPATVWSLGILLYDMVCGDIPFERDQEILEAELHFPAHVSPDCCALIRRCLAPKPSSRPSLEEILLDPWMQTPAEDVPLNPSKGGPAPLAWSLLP

Among the data in ChEMBL document CHEMBL4715760, “Balancing potency, metabolic stability and permeability in pyrrolopyrimidine-based EGFR inhibitors” (Eur J Med Chem, 2016) are inhibition and IC50 values, retold here.

SMILES strings stand for the structures.

Chain of Mitogen-activated protein kinase 14 (Homo sapiens) (Q16539 whole entry): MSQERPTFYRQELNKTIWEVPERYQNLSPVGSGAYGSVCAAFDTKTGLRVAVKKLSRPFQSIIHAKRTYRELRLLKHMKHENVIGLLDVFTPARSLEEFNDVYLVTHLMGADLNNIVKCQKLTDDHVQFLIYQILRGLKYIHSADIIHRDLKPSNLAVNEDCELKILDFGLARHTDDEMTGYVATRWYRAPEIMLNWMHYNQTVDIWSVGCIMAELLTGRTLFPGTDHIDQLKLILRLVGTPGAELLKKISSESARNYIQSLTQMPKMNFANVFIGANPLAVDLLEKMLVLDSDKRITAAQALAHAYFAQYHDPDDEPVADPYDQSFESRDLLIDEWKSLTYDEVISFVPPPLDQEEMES
T2 sequence (P00533 whole entry, the tested form may be a part): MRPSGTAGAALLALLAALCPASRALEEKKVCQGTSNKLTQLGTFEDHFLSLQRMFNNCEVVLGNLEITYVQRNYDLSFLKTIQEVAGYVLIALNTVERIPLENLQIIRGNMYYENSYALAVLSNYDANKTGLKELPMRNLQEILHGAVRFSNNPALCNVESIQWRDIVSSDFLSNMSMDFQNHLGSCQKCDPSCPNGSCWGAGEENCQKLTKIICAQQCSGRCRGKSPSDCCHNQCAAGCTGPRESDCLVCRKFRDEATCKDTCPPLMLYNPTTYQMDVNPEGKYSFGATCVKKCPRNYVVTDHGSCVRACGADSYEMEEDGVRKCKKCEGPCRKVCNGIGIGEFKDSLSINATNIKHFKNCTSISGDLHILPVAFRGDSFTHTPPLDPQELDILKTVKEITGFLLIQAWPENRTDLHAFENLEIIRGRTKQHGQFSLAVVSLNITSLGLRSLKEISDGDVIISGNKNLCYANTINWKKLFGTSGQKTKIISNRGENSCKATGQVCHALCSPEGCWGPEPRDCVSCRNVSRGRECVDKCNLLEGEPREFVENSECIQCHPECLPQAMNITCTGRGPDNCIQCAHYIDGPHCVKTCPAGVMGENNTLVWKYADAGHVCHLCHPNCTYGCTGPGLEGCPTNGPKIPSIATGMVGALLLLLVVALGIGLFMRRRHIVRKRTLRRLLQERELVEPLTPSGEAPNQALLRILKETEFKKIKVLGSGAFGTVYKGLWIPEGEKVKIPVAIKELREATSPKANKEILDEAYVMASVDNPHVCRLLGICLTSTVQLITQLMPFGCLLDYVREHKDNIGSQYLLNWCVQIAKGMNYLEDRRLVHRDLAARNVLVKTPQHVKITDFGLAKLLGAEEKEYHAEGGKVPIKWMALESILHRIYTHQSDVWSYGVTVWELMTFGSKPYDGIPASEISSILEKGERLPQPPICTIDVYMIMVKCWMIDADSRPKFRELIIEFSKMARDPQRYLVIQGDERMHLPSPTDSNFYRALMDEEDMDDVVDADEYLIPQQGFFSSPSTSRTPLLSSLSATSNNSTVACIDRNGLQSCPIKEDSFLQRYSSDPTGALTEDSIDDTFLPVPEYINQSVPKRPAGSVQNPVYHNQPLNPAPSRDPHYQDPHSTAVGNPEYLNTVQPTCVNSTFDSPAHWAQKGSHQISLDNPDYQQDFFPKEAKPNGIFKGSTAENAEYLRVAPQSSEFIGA

One may read the inhibition as the drop in the measured response relative to a control, in per cent. Take `C#Cc1cccc(Nc2ncnc3cc(OCCOC)c(OCCOC)cc23)c1` [ERLOTINIB]: the figures for the inhibition in test [1], in test [2] and in [3] were -7%, 17% and -3%, respectively.

As usually defined, the IC50 is the point on the concentration scale where inhibition reaches its midpoint. Turning to `COc1ccccc1-c1cc2c(N[C@H](CO)c3ccccc3)ncnc2[nH]1`, the inhibition in test [4] is 24%; in [6], 79%; in test [7], 100%; in test [8], -2%; in test [9], 15%; in test [1] it was 3%. Further, the inhibition in test [10] was 14%; in [2], 17%; in test [3], -2%; in test [11] it was 11%; in test [12], 6%; in [13] it was 27%. For the same molecule, the inhibition in test [14] turned out to be 5%. In [5], the IC50 came out at 0.4 nM.

For the molecule `CCOc1ccccc1-c1cc2c(N[C@H](CO)c3ccccc3)ncnc2[nH]1`, the inhibition in test [4] is 10%; in test [6], 82%; in test [7] it was 102%; in [8], 2%; in test [9], 1%; in test [10] it was 11%. Further, the inhibition in test [3] came out at 9%; in test [11] it was 11%; in [12], 17%; in test [13], 34%; in [14], 2%. Further, in test [5], the IC50 amounted to 0.2 nM.

Consider `CN(C)CCNCc1ccc(-c2cc3c(N[C@H](CO)c4ccccc4)ncnc3[nH]2)cc1F`, for which the inhibition was 20% in test [4]; 86% in test [6]; 104% in test [7]; -6% in test [8]; 21% in [10]; 1% in [2]. In addition, the inhibition in test [3] was 1%; in test [11] it was 5%; in test [12], 17%; in test [13], 55%; in test [14] it was -5%. In addition, the IC50 in test [5] is 0.1 nM.

As for `OC[C@@H](Nc1ncnc2[nH]c(-c3ccccc3)cc12)c1ccccc1`, the inhibition in test [4] is 19%; in [6], 88%; in [7], 96%; in [8], -3%; in test [9], 17%; in test [1] it was 10%. Further, the inhibition in test [10] is 29%; in test [2] it was 20%; in [11] it was 34%; in test [12] it was 9%; in test [13] it was 27%; in [14] it was 9%. Also, in test [5], the IC50 was 0.8 nM.

`OCC[C@@H](Nc1ncnc2[nH]c(-c3ccccc3)cc12)c1ccccc1`: the inhibition in [4] was 14%; in [6], 74%; in test [7], 100%; in [8], 7%; in [9] it was -9%; in test [10], 5%. In addition, the inhibition in [3] was 7%; in [11], -1%; in test [12], 19%; in test [13] it was 26%; in [14], 6%. Further, in test [5], the half-inhibitory concentration (IC50) is 0.5 nM.
